Our source for the inhibition and IC50 values is ChEMBL document CHEMBL4312014, “Nitrothiadiazolo[3,2-a]pyrimidines as promising antiglycating agents” (Eur J Med Chem, 2020).

Calls of active or inactive are those of the source. No cut-off for these calls is given here.

Test [1] is described as follows: Anti-glycation activity assessed as inhibition of AGE formation by measuring decrease in glycated BSA protein level at 100 uM incubated for 24 hrs in presence of glucose by fluorescence based assay relative to control. It is filed as functional.
Test [2] can be described thus: Anti-glycation activity assessed as inhibition of AGE formation by measuring decrease in glycated BSA protein level at 1000 uM incubated for 24 hrs in presence of glucose by fluorescence based assay relative to control. It is filed as functional.
The nature of test [3]: Metal chelating activity assessed as inhibition of Cu2+ ion-induced oxidation of ascorbic acid compound treated with CuSO4.5H2O for 5 mins followed by ascorbate addition and measured immediately by spectrophotometric analysis.
A short description of test [4]: Anti-glycation activity assessed as inhibition of AGE formation by measuring decrease in glycated BSA protein level incubated for 24 hrs in presence of glucose by fluorescence based assay. It is filed as functional.
Test [5] relates to Rattus norvegicus. As to the kind of experiment: Ex vivo inhibition of DPP4 in Wistar rat serum assessed as p-nitroaniline formation at 10 mg/kg, po by incubating compound-treated serum with Gly-Pro-p-nitroanilide substrate and measured for 30 mins by microplate reader analysis. It is filed as functional, organism-based.
The test system of test [6] is Rattus norvegicus. The experiment in a line: Ex vivo inhibition of DPP4 in Wistar rat serum assessed as decrease in p-nitroaniline formation at 10 mg/kg, po by incubating 0 to 2 hrs compound-treated serum with Gly-Pro-p-nitroanilide substrate and measured for 30 mins by microplate reader analysis. The format is functional, organism-based.
Test [7] concerns the target T1, Dipeptidyl peptidase 4 (Homo sapiens, UniProt P27487). The format is cell-free, Serum.
Target sequence in this assay (P27487 whole entry): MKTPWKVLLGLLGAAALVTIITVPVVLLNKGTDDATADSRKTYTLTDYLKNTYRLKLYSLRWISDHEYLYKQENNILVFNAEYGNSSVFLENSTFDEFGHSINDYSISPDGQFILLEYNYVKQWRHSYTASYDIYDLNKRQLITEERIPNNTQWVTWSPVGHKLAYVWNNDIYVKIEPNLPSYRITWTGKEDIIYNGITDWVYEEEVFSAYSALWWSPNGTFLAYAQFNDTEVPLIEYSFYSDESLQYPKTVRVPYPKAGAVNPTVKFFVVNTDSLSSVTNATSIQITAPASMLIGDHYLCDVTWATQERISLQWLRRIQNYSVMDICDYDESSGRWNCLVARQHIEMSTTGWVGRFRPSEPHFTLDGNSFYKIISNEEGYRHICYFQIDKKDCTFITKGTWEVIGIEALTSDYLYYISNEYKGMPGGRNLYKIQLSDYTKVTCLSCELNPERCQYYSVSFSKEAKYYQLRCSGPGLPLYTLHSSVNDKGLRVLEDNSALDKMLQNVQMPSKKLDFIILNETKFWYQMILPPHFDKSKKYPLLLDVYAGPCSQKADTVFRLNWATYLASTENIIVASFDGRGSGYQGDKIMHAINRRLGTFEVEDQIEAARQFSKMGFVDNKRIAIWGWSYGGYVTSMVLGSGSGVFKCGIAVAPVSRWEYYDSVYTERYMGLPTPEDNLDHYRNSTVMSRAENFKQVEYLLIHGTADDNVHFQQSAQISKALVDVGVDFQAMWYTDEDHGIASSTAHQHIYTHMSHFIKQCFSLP
For test [8], the target named is T1, Dipeptidyl peptidase 4. The note with it: Serum, at 100 µM.
Target sequence in this assay (P27487 whole entry, looked up): as the sequence (P27487 whole entry) above
The test system of test [9] is Rattus norvegicus. As to the kind of experiment: Ex vivo inhibition of DPP4 in Wistar rat serum assessed as decrease in p-nitroaniline formation at 10 mg/kg, po by incubating 0 to 4 hrs compound-treated serum with Gly-Pro-p-nitroanilide substrate and measured for 30 mins by microplate reader analysis. The format is functional, organism-based.

As usually defined, the inhibition is the drop in the measured response relative to a control, in per cent. As a reminder, the IC50 is the midpoint of a concentration-inhibition curve.

Consider `CC(C)(C)Nc1nc2scnn2c(=O)c1[N+](=O)[O-]`, for which the inhibition in test [1] is 21.3%; in test [2] it was 63.8%. The IC50 came to 56 µM in [3] and 181 µM in [4]. For the same compound, the inhibition result with Rattus norvegicus [5] is “Active”.
As to `CCc1ccc(CCOc2ccc(CC3SC(=O)NC3=O)cc2)nc1` (stereo not drawn) [PIOGLITAZONE], in test [3], the concentration for half-maximal inhibition (IC50) was 44.1 µM.
On to `N=C(N)NN` [PIMAGEDINE], for which the inhibition was 6% in test [1] and 57.8% in test [2]. Besides, the 50% inhibitory concentration (IC50) in [3] is more than 1000 µM; in test [4] it was 765 µM.
Take `O=c1c([N+](=O)[O-])c(NCCO)nc2scnn12`: the results for the inhibition in [1] and in [2] were 29.5% and 44.4%, respectively. The concentration for half-maximal inhibition (IC50) in test [3] is 86.1 µM. Further, the inhibition result in the test on Rattus norvegicus [5] was “Active”.
`CC(C)Nc1nc2scnn2c(=O)c1[N+](=O)[O-]`: the inhibition was 30% in test [1] and 69.6% in test [2]. Moreover, the IC50 in test [3] was more than 200 µM; in [4] it was 325 µM. The inhibition entry in the test with Rattus norvegicus [5] was “Active”.
For the compound `CC1(C)OCC(CNc2nc3scnn3c(=O)c2[N+](=O)[O-])O1` (stereo not drawn), the inhibition in test [1] came to 42.1%; in test [2] it was 71.4%. Also, the 50% inhibitory concentration (IC50) in [3] worked out at 48.1 µM; in [4], 209 µM. Further, the inhibition result in the test on Rattus norvegicus [5] was “Active”.
Regarding `O=c1c([N+](=O)[O-])c(NCCc2ccc(Cl)cc2)nc2scnn12`, the values for the inhibition (in test [1]; in [2]; on Dipeptidyl peptidase 4 [8]) were 48.8%, 87.4% and 69.8%, respectively. Besides, the concentration for half-maximal inhibition (IC50) in [3] was more than 200 µM; in test [4] it was 134 µM; at Dipeptidyl peptidase 4 [7], 55.9 µM. The inhibition result with Rattus norvegicus [6] was “Active”.
Consider `CCCCNc1nc2scnn2c(=O)c1[N+](=O)[O-]`, for which the inhibition in test [1] is 32.1%; in [2] it was 77%. The figures for the IC50 in test [3] and in test [4] were 79.1 µM and 204 µM, respectively. Also, in the test with Rattus norvegicus [5], the inhibition entry is “Active”.
Turning to `CC(=O)OCCNc1nc2scnn2c(=O)c1[N+](=O)[O-]`, the inhibition in [1] was found to be 44.8%; in test [2] it was 50.8%. For the same compound, the IC50 in [3] was more than 200 µM. In the test with Rattus norvegicus [5], the inhibition entry was “Active”.
With `O=C(O)CCCCC1CCSS1` (stereo not drawn) [LIPOIC ACID, ALPHA], the half-maximal inhibitory concentration (IC50) in test [3] is 68.9 µM.
For the compound `CCCNc1nc2scnn2c(=O)c1[N+](=O)[O-]`, the inhibition in test [1] came to 14.9%; in test [2] it was 52.5%. Besides, the IC50 in test [3] was 62 µM. The inhibition entry in the test on Rattus norvegicus [5] was “Active”.
Turning to `N#C[C@@H]1CCCN1C(=O)CNC12CC3CC(CC(O)(C3)C1)C2`, in the test on Rattus norvegicus [9], the inhibition result is “Active”.
Regarding `CC(C)CNc1nc2scnn2c(=O)c1[N+](=O)[O-]`, the inhibition in test [1] turned out to be 23.1%; in [2], 73.9%. Also, the IC50 in test [3] worked out at 37.2 µM; in [4] it was 290 µM. Besides, the inhibition result in the test on Rattus norvegicus [5] was “Active”.
For `CC(=O)OCCCNc1nc2scnn2c(=O)c1[N+](=O)[O-]`, the results for the inhibition in [1] and in [2] were 12.5% and 37.2%, respectively. Further, in [3], the concentration for half-maximal inhibition (IC50) worked out at 115 µM. Besides, the inhibition result in the test with Rattus norvegicus [5] is “Active”.
Turning to `O=c1c([N+](=O)[O-])c(NCC(O)CO)nc2scnn12` (stereo not drawn), the inhibition turned out to be 10.3% in [1] and 33.7% in test [2]. Besides, in test [3], the IC50 is more than 200 µM. For the same compound, the inhibition entry with Rattus norvegicus [5] is “Active”.
The matching figures for `O=c1c([N+](=O)[O-])c(NCCCCO)nc2scnn12`: 26.1%, 43.6%, more than 200 µM and “Active”.
Consider `O=c1c([N+](=O)[O-])c(NCCc2ccc(O)cc2)nc2scnn12`, for which the inhibition in [1] is 43.8%; in test [2], 76.8%; on Dipeptidyl peptidase 4 [8], 42.1%. In addition, the IC50 was more than 200 µM in [3], 167 µM in [4] and more than 100 µM at Dipeptidyl peptidase 4 [7]. Further, the inhibition entry in the test with Rattus norvegicus [5] was “Active”.
For the compound `CC(=O)OCCCCNc1nc2scnn2c(=O)c1[N+](=O)[O-]`, the inhibition in test [1] stood at 11.5%; in [2], 37.5%. Also, in test [3], the IC50 is more than 200 µM. The inhibition result in the test with Rattus norvegicus [5] was “Active”.
Consider `O=c1c([N+](=O)[O-])c(NCCCO)nc2scnn12`, for which the inhibition in test [1] is 16.1%; in test [2], 32.7%. For the same compound, the IC50 in test [3] was more than 200 µM. Moreover, the inhibition entry in the test with Rattus norvegicus [5] was “Active”.
